Legend:
Type in all cases: cell-based
blood [1] = test: Ex vivo stimulation of blood in strip wells, then 4° C. storage; ACTB, p21 and PUMA mRNA quantified; conditions: for levels of both p21 and PUMA after 3 days of post-stimulation storage: stored at 4° C. for 3 days after stimulation, higher Ct values
Procedure: (§1) Briefly, 96-well filterplates were assembled with leukocyte reduction membranes (Leukosorb; Pall) and placed over oligo(dT)-immobilized collection plates. 150 μL of 5 mmol/L Tris (pH 7.4) was applied to wet the filter membranes. After centrifugation at 120 g for 1 min at 4° C. to remove the Tris solution from the membranes, 50 μL of the stimulated whole blood samples was applied to each well and immediately centrifuged at 120 g for 2 min at 4° C. The wells were then washed once with 300 μL of phosphate-buffered saline. After centrifugation at 2000 g for 5 min at 4° C. to remove the saline solution, 60 μL of stock lysis buffer [5 g/L N-lauroylsarcosine, 4× standard saline citrate, 10 mmol/L Tris-HCl (pH 7.4), 1 mmol/L EDTA, 1 mL/L IGEPAL CA-630 (substitute of NP-40), 1.79 mol/L guanidine thiocyanate (all from Sigma)], supplemented with 10 mL/L 2-mercaptoethanol (Bio-Rad), 0.5 g/L proteinase K (Pierce), 0.1 g/L salmon sperm DNA (5 Prime Eppendorf/Brinkman), 0.1 g/L Escherichia coli tRNA (Sigma), 5 nmol/L each of the specific reverse primers, and 10^10 molecules/L of synthetic RNA34 (as external control), was added to each well of the filterplates. The plates were then incubated at 37° C. for 10 min, placed over oligo(dT)-immobilized collection microplates (GenePlate; RNAture), and centrifuged at 2000 g for 5 min at 4° C. After overnight storage at 4° C., the microplates were washed 3 times with 100 μL of plain lysis buffer and then 3 times with 150 μL of wash buffer [0.5 mol/L NaCl, 10 mmol/L Tris (pH 7.4) 1 mmol/L EDTA] at 4° C.
cDNA was synthesized directly in each well by addition of 30 μL of buffer containing 1× reverse transcription buffer [50 mM KCl, 10 mM Tris-HCl (pH 8.3), 5.5 mM MgCl2, 1 nL/μL Tween 20], 1.25 mM each deoxynucleoside triphosphate, 4 units of rRNasin, and 80 U of MMLV reverse transcriptase (Promega; without primers) and incubation at 37° C. for 2 h. From each 30-μL reaction, 4 μL of cDNA was transferred directly to 384-well PCR plates, and 5 μL of TaqMan universal master mixture (Applied Biosystems) and 1 μL of 5 μM each of the forward and reverse primers for each mRNA or beta-actin were added. PCR was carried out in a PRISM 7900HT (Applied Biosystems), with 1 cycle of 95° C. for 10 min followed by 45 cycles of 95° C. for 30 s, 55° C. for 30 s, and 60° C. for 1 min. Each gene was amplified in separate wells. The cycle threshold (Ct), i.e., the cycle at which certain amounts of PCR products (based on fluorescence) were generated, was determined with analytical software (SDS; Applied Biosystems). The ΔCt were determined by subtracting each Ct of PHA-treated sample from each Ct of PBS-treated control sample, and the fold increase was calculated by 2^-ΔCt.
In order to evaluate the stability of samples after stimulation, blood was stimulated with DNR (10 μM in final concentration), AraC (100 μM in final concentration), or PBS in strip wells for 4 hours at 37° C., and then stored at 4° C. for 0-3 days. After the 4° C. incubation, the samples were stored in a −80° C. freezer until analysis. These experimental conditions are designed to represent the possible conditions a sample would be exposed to during transport in the portable incubation devices described herein. Three mRNAs (ACTB, p21, and PUMA) were quantified as described above.

blood [2] = test: Induction of IL2 or CXCL9 after incubation in the portable device vs controlled incubators; conditions: FIGS. 13A and 13B
Procedure: FIGS. 13A and 13B depict a comparison of the level of induction of 1L2 or CXCL9 when stimulated by PHA or IFN alpha and then incubated in the portable device disclosed herein or in controlled incubators (at a variety of temperatures). […] This again represents the degree of flexibility in temperatures and times that can be used (as disclosed above) to perform ex vivo stimulation of blood samples.

blood [3] = test: PHA stimulation of blood: PHA-containing collection tubes vs multi-well strip; conditions: 37° C. for 4 hours; FIGS. 9A-9D
Procedure: Blood collection tubes were manufactured as described above. Three tubes were stored at 4° C. (tubes PHA 4C #1, #2, and #3 in FIG. 9) or room temperature (PHA RT in FIG. 9) for 20 days. Blood was then drawn into 6 tubes: a control heparin tube, a plain heparin tube, and 4 PHA-containing tubes. The blood from the control heparin tube was stimulated (by PBS or PHA) in micro-plate tube strips (3 wells each, 60 μL blood/well). The remaining 5 tubes were incubated at 37° C. for 4 hours. Various mRNA were quantified by using SYBR green real time PCR as described previously (Mitsuhashi M et al. Clin. Chem. 52:634-642, 2006). […]
(§2) cDNA was synthesized directly in each well by addition of 30 μL of buffer containing 1× reverse transcription buffer [50 mM KCl, 10 mM Tris-HCl (pH 8.3), 5.5 mM MgCl2, 1 nL/μL Tween 20], 1.25 mM each deoxynucleoside triphosphate, 4 units of rRNasin, and 80 U of MMLV reverse transcriptase (Promega; without primers) and incubation at 37° C. for 2 h. […] The cycle threshold (Ct), i.e., the cycle at which certain amounts of PCR products (based on fluorescence) were generated, was determined with analytical software (SDS; Applied Biosystems). The ΔCt were determined by subtracting each Ct of PHA-treated sample from each Ct of PBS-treated control sample, and the fold increase was calculated by 2^-ΔCt.

blood [4] = test: Time course of mRNA induction in blood at two incubation temperatures (ACTB, IL2, CXCL9); conditions: strip wells, 42° C. vs 37° C., 0-9 hours; FIGS. 12C and 12F
Procedure: Briefly, 96-well filterplates were assembled with leukocyte reduction membranes (Leukosorb; Pall) and placed over oligo(dT)-immobilized collection plates. 150 μL of 5 mmol/L Tris (pH 7.4) was applied to wet the filter membranes. After centrifugation at 120 g for 1 min at 4° C. to remove the Tris solution from the membranes, 50 μL of the stimulated whole blood samples was applied to each well and immediately centrifuged at 120 g for 2 min at 4° C. The wells were then washed once with 300 μL of phosphate-buffered saline. […]
as §2
The time course of induction was also evaluated for two different incubation temperatures. […] ACTB, IL2, andCXCL9 mRNA were quantified.

blood [5] = test: IFNa2b stimulation of blood: vacuum tube vs multi-well strip, immediate vs delayed
Procedure: as §1, with “After overnight storage at 4° C., the microplates were washed 3 times with 100 μL of plain lysis buffer and then 3 times with 150 μL of wash buffer [0.5 mol/L NaCl, 10 mmol/L Tris (pH 7.4) 1 mmol/L EDTA] at 4° C.” left out
as §2, with “2^-ΔCt. […]” for “2^-ΔCt.”

[6] = DNR 10 μM or AraC 100 μM final, 4 hours at 37° C., vs PBS
[7] = DNR 10 μM or AraC 100 μM final, 4 hours at 37° C., vs PBS, FIGS. 11A-11B
[8] = blood stored at 4° C. for 6 hours before ex vivo stimulation

Nc1ccn([C@@H]2O[C@H](CO)[C@@H](O)[C@@H]2O)c(=O)n1 [AraC, cytarabine]
PUMA expression induction (blood [1]; [6]): induced | beta actin mRNA induction (blood [1]; [7]): not induced | levels of both p21 and PUMA after 3 days of post-stimulation storage (blood [1]): appear to have decreased

phytohemaglutinin [PHA]
IL2 induction, portable device vs controlled incubators (blood [2]): not significantly different | mRNA (beta-actin, interferon gamma, interleukin 2, GM-CSF): stimulation in multi-well strip vs PHA-containing blood collection tubes (blood [3]): no differences were detected

COc1cccc2c1C(=O)c1c(O)c3c(c(O)c1C2=O)C[C@@](O)(C(C)=O)C[C@@H]3O[C@H]1C[C@H](N)[C@H](O)[C@H](C)O1 [DNR, daunorubicin]
PUMA expression induction (blood [1]; [6]): induced | beta actin mRNA induction (blood [1]; [7]): not induced | p21 mRNA induction (blood [1]; [7]): significant induction | levels of both p21 and PUMA after 3 days of post-stimulation storage (blood [1]): appear to have decreased

interferon alpha 2b [IFNa2b]
CXCL9 induction, portable device vs controlled incubators (blood [2]): not significantly different | CXCL-9 induction (blood [4]): induced to a similar extent | performance of IFNa2b tube vs conventional IFNa2b stimulation in strip wells (blood [5]; 2 hours at 37° C. immediately after blood draw, FIGS. 10A-10C): identical | CXCL10 induction (blood [5]; [8]): less induction | GIP2 induction (blood [5]; [8]): less induction

Source: patent publication US10542745B2, “Portable device for ex vivo stimulation of whole blood” (Hitachi Chemical Co., Ltd., priority 2010, dated 2020)
